# Assay results from patent publication US12435057B2, “Triazole carboxylic acids as LPA antagonists” (BRISTOL-MYERS SQUIBB COMPANY, priority 2019, dated 2025).
# pIC50: −log10 of the molar value.
# Molecular target: T1, human LPA1 (Homo sapiens, UniProt Q92633)
# T1 construct: expressed in transfected cells; host or cells: Chinese hamster ovary (CHO) cells
# Assay: LPA1 functional antagonist assay (calcium flux)
# Assay type: cell-based
# Details: CHO cells overexpressing human LPA1; inhibition of calcium flux induced by 10 nM LPA; read-out: hLPA1 IC50
# Protocol: The effectiveness of compounds of the present invention as LPA1 inhibitors can be determined in an LPA1 functional antagonist assay as follows: • Chinese hamster ovary cells overexpressing human LPA1 were plated overnight (15,000 cells/well) in poly-D-lysine coated 384-well microplates (Greiner bio-one, Cat #781946) in DMEM/F12 medium (Gibco, Cat #11039). Following overnight culture, cells were loaded with calcium indicator dye (AAT Bioquest Inc, Cat #34601) for 30 minutes at 37° C. The cells were then equilibrated to room temperature for 30 minutes before the assay. Test compounds solubilized in DMSO were transferred to 384 well non-binding surface plates (Corning, Cat #3575) using the Labcyte Echo acoustic dispense and diluted with assay buffer [[…] with calcium/magnesium (Gibco Cat #14025-092), 20 mM HEPES (Gibco Cat #15630-080) and 0.1% fatty acid free BSA (Sigma Cat #A9205)] to a final concentration of 0.5% DMSO. Diluted compounds were added to the cells by FDSS6000 (Hamamatsu) at final concentrations ranging from 0.08 nM to 5 μM. and were then incubated for 20 min at room temperature at which time LPA (Avanti Polar Lipids Cat #857130C) was added at final concentrations of 10 nM to stimulate the cells. The compound IC50 value was defined as the concentration of test compound which inhibited 50% of the calcium flux induced by LPA alone. IC50 values were determined by fitting data to a 4-parameter logistic equation (GraphPad Prism, San Diego CA). b. In Vivo Assays LPA Challenge with Plasma Histamine Evaluation.
# T1 sequence (Q92633 whole entry): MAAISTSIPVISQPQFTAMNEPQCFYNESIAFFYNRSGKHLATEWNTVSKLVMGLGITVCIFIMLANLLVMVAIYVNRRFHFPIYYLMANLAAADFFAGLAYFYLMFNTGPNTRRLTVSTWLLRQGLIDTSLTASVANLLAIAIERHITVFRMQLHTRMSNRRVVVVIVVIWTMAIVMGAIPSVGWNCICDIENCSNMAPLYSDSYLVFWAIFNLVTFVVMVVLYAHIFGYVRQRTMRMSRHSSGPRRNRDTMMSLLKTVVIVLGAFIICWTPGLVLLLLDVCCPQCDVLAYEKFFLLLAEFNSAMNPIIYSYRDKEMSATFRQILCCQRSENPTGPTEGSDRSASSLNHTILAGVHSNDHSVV
row,SMILES,pIC50
1,CCCCN(C)C(=O)OCc1c(-c2ccc(O[C@H]3CCO[C@H](C(=O)O)C3)c(C)n2)nnn1C [Example 37],6.65
2,Cc1nc(-c2nnn(C)c2COC(=O)N(C)CC2CCC2)ccc1O[C@H]1CCO[C@H](C(=O)O)C1 [Example 40],6.80
3,Cc1nc(-c2nnn(C)c2CNC(=O)OCc2ccccc2)ccc1O[C@@H]1CCC2C(C(=O)O)C21 (some centres unmarked) [Example 53],7.80
4,Cc1nc(-c2nnn(C)c2CNC(=O)OCC(C)(C)C)ccc1O[C@@H]1CCC2C(C(=O)O)C21 (some centres unmarked) [Example 54],6.56
5,Cc1nc(-c2nnn(C)c2CNC(=O)OC2CCCC2)ccc1O[C@@H]1CCC2C(C(=O)O)C21 (some centres unmarked) [Example 55],7.08
6,CCCOc1ccnc(NCc2c(-c3ccc(O[C@@H]4CC[C@H]5C(C(=O)O)[C@@H]45)c(C)n3)nnn2C)n1 (some centres unmarked) [Example 57],7.46
7,Cc1nc(-c2nnn(C)c2COC(=O)N(C)CC(C)C)ccc1O[C@@H]1CC[C@H]2C(C(=O)O)[C@@H]12 (some centres unmarked) [Example 60],6.50
8,Cc1nc(-c2nnn(C)c2COC(=O)N(C)C2CCCC2)ccc1O[C@@H]1CC[C@H]2C(C(=O)O)[C@@H]12 (some centres unmarked) [Example 62],6.84
9,Cc1nc(-c2nnn(C)c2COC(=O)NCc2ccccc2)ccc1O[C@@H]1CC[C@H]2C(C(=O)O)[C@@H]12 (some centres unmarked) [Example 63],6.58
10,CN(CC1CCC1)C(=O)OCc1c(-c2ccc(O[C@@H]3CC[C@H]4C(C(=O)O)[C@@H]34)cn2)nnn1C (some centres unmarked) [Example 70],7.09

# Results, then the compound that gave them:
row,pIC50,SMILES
1,6.46,Cc1nc(-c2nnn(C)c2COC(=O)N(C)CC2CCC2)ccc1O[C@H]1COC[C@@H](C(=O)O)C1 [Example 32]
2,6.19,CCCCN(C)C(=O)OCc1c(-c2ccc(O[C@H]3CCO[C@@H](C(=O)O)C3)c(C)n2)nnn1C [Example 35]
3,6.15,Cc1nc(-c2nnn(C)c2COC(=O)N(C)C2CCCC2)ccc1O[C@H]1CCO[C@@H](C(=O)O)C1 [Example 36]
4,5.70,CCCN(C)C(=O)OCc1c(-c2ccc(O[C@H]3CCO[C@H](C(=O)O)C3)c(C)n2)nnn1C [Example 38]
5,6.50,Cc1nc(-c2nnn(C)c2COC(=O)N(C)C2CCCC2)ccc1O[C@H]1CCO[C@H](C(=O)O)C1 [Example 39]
6,6.81,CCCCOC(=O)NCc1c(-c2ccc(O[C@@H]3CCC4C(C(=O)O)C43)c(C)n2)nnn1C (some centres unmarked) [Example 56]
7,7.34,CCCCN(C)C(=O)OCc1c(-c2ccc(O[C@@H]3CC[C@H]4C(C(=O)O)[C@@H]34)c(C)n2)nnn1C (some centres unmarked) [Example 58]
8,6.50,Cc1nc(-c2nnn(C)c2COC(=O)N(C)CC2CC2)ccc1O[C@@H]1CC[C@H]2C(C(=O)O)[C@@H]12 (some centres unmarked) [Example 59]
9,7.01,Cc1nc(-c2nnn(C)c2COC(=O)N(C)C2CCC2)ccc1O[C@@H]1CC[C@H]2C(C(=O)O)[C@@H]12 (some centres unmarked) [Example 61]
10,6.90,Cc1nc(-c2nnn(C)c2NC(=O)OCc2ccccc2)ccc1O[C@@H]1CC[C@H]2C(C(=O)O)[C@@H]12 (some centres unmarked) [Example 64]
11,6.36,CN(C(=O)OCc1c(-c2ccc(OC3CC4C(C3)C4C(=O)O)cn2)nnn1C)C1CCCC1 (centres unmarked) [Example 65]
12,6.49,CN(CC1CCC1)C(=O)OCc1c(-c2ccc(OC3CC4C(C3)C4C(=O)O)cn2)nnn1C (centres unmarked) [Example 66]
13,6.58,Cc1nc(-c2nnn(C)c2COC(=O)N(C)CC2CCC2)ccc1OC1CC2C(C1)C2C(=O)O (centres unmarked) [Example 67]
14,6.94,CN(C(=O)OCc1c(-c2ccc(O[C@@H]3CC[C@H]4C(C(=O)O)[C@@H]34)cn2)nnn1C)C1CCCC1 (some centres unmarked) [Example 71]
15,7.22,Cc1nc(-c2nnn(C)c2COC(=O)N(C)CC2CCC2)ccc1O[C@@H]1C[C@H](C(=O)O)C[C@@H]2C[C@@H]21 [Example 73]

# Test system: IPF patients
# Assay: not given
# Details: 26-week clinical trial in IPF patients; cited from earlier work
row,SMILES,rate of FVC (forced vital capacity) decline
1,Cc1noc(-c2ccc(-c3ccc(C4(C(=O)O)CC4)cc3)cc2)c1NC(=O)O[C@H](C)c1ccccc1 [BMS-986020],significantly reduce

# Test system: pancreatic cancer cell lines
# Assay: not given
# Details: highly peritoneal metastatic pancreatic cancer cell line; cited from earlier work
row,SMILES,LPA-induced and ascites-induced invasion activity
1,Cc1noc(-c2ccc(CSCCC(=O)O)cc2)c1NC(=O)OC(C)c1ccccc1Cl (centres unmarked) [Ki16425],blocked

# Same assay, conditions: pancreatic cancer cell lines; cited from earlier work
row,SMILES,in vitro migration in response to LPA and ascites from pancreatic cancer patients
1,Cc1noc(-c2ccc(CSCCC(=O)O)cc2)c1NC(=O)OC(C)c1ccccc1Cl (centres unmarked) [Ki16425],effectively blocked

# Test system: UUO mice
# Assay: not given
# Details: UUO mice treated with antagonist, compared with LPA1 (-/-) mice; cited from earlier work
row,SMILES,development of renal fibrosis
1,Cc1noc(-c2ccc(CSCCC(=O)O)cc2)c1NC(=O)OC(C)c1ccccc1Cl (centres unmarked) [Ki16425],closely resembled the profile of LPA1 (−/−) mice

# Test system: mouse epithelial renal cell line, MCT
# Assay: not given
# Details: co-treatment with LPA, MCT cells; cited from earlier work
row,SMILES,LPA-induced expression of CTGF
1,Cc1noc(-c2ccc(CSCCC(=O)O)cc2)c1NC(=O)OC(C)c1ccccc1Cl (centres unmarked) [Ki16425],almost completely suppressed

# Test system: human foetal lung fibroblasts
# Assay: not given
# Details: cited from earlier work
row,SMILES,chemotaxis of human foetal lung fibroblasts induced by BAL from IPF patients
1,Cc1noc(-c2ccc(CSCCC(=O)O)cc2)c1NC(=O)OC(C)c1ccccc1Cl (centres unmarked) [Ki16425],blocked

# Test system: nerve-injured mice
# Assay: not given
# Details: pretreatment; cited from earlier work
row,SMILES,allodynia and hyperalgesia
1,C[C@@H](N)[C@H]1CC[C@H](C(=O)Nc2ccncc2)CC1 [Example Y-27632],completely abolished
